Data on 10 molecules can be found in patent publication US11850286B2, “Sulfamide linker, conjugates thereof, and methods of preparation” (priority 2014, dated 2023).

The series can be described thus: Determination of HPLC retention time (RP-HPLC, polarity). In kind it is physicochemical. Here is the method:
Samples of compounds 19-38 were injected on an HPLC system equipped with an Phenomenex Luna C18(2) 5μ, 150×4.6 mm, 100 Å column and eluted with either a gradient of 10% MeCN (0.1% TFA)/90% water (0.1% TFA) to 90% MeCN (0.1% TFA)/10% water (0.1% TFA) or a gradient of 10% MeCN/90% 10 mM potassium phosphate buffer pH 7.4 to 90% MeCN/10% 10 mM potassium phosphate buffer pH 7.4. The retention times obtained for these compounds are depicted in Table 3.

[1] abbreviates: RP-HPLC C18, MeCN/10 mM potassium phosphate buffer pH 7.4 gradient.
The mark [2] stands for this setting: RP-HPLC C18, MeCN/water gradient with 0.1% TFA.

Take `O=C(CCCCCCNC(=O)OCC1C2CCC#CCCC21)NCc1ccccc1` (centres unmarked) [Compound 19, BCN-Heptanoic Acid Benzylamide]: the “retention time” value stood at 11.4 min under setting [1] and 11.4 min under setting [2].
Turning to `O=C(CCCCCCNC(=O)OCC1C2CCC#CCCC21)NS(=O)(=O)NCc1ccccc1` (centres unmarked) [Compound 20], the “retention time” value turned out to be 9.6 min under setting [1] and 11.6 min under setting [2].
On to `O=C(NCCCCCOC(=O)NS(=O)(=O)NCc1ccccc1)OCC1C2CCC#CCCC21` (centres unmarked) [Compound 21], for which the “retention time” value is, setting by setting: under setting [1], 9.2 min; under setting [2], 11.6 min.
As to `CN(C(=O)OCCCCCNC(=O)OCC1C2CCC#CCCC21)S(=O)(=O)NCc1ccccc1` (centres unmarked) [Compound 22], the “retention time” value is 12.6 min under setting [1] and 12.7 min under setting [2].
For `COc1cc2cc(c1Cl)N(C)C(=O)C[C@H](OC(=O)[C@H](C)N(C)C(=O)CCCCCNC(=O)CCOCCOCCOCCOCCNC(=O)OCC1C3CCC#CCCC31)[C@]1(C)O[C@H]1[C@H](C)[C@@H]1C[C@@](O)(NC(=O)O1)[C@H](OC)/C=C/C=C(\C)C2` (some centres unmarked) [Compound 30], the “retention time” value stood at 10.6 min under setting [1] and 10.5 min under setting [2].
For the molecule `COc1cc2cc(c1Cl)N(C)C(=O)C[C@H](OC(=O)[C@H](C)N(C)C(=O)CCCCCNC(=O)CCOCCOCCOCCOCCOCCOCCOCCOCCOCCOCCOCCOCCNC(=O)OCC1C3CCC#CCCC31)[C@]1(C)O[C@H]1[C@H](C)[C@@H]1C[C@@](O)(NC(=O)O1)[C@H](OC)/C=C/C=C(\C)C2` (some centres unmarked) [Compound 31], the “retention time” value is, setting by setting: under setting [1], 10.1 min; under setting [2], 10.1 min.
Turning to `COc1cc2cc(c1Cl)N(C)C(=O)C[C@H](OC(=O)[C@H](C)N(C)C(=O)CCCCCNC(=O)CCOCCOCCOCCOCCOCCOCCOCCOCCOCCOCCOCCOCCOCCOCCOCCOCCOCCOCCOCCOCCOCCOCCOCCOCCNC(=O)OCC1C3CCC#CCCC31)[C@]1(C)O[C@H]1[C@H](C)[C@@H]1C[C@@](O)(NC(=O)O1)[C@H](OC)/C=C/C=C(\C)C2` (some centres unmarked) [Compound 32], the “retention time” value was 9.7 min under setting [1] and 9.7 min under setting [2].
With `COc1cc2cc(c1Cl)N(C)C(=O)C[C@H](OC(=O)[C@H](C)N(C)C(=O)CCCCCNC(=O)OCc1ccc(NC(=O)[C@H](CCCNC(N)=O)NC(=O)[C@@H](NC(=O)OCCOCCNS(=O)(=O)NC(=O)OCC3C4CCC#CCCC43)C(C)C)cc1)[C@]1(C)O[C@H]1[C@H](C)[C@@H]1C[C@@](O)(NC(=O)O1)[C@H](OC)/C=C/C=C(\C)C2` (some centres unmarked) [Compound 36], the “retention time” value under setting [1] came out at 9.3 min and the “retention time” value under setting [2] is on record as 10.4 min.
In the case of `COc1cc2cc(c1Cl)N(C)C(=O)C[C@H](OC(=O)[C@H](C)N(C)C(=O)CCCCCNC(=O)OCc1ccc(NC(=O)[C@H](CCCNC(N)=O)NC(=O)[C@@H](NC(=O)OCCN(CCOC(=O)N[C@H](C(=O)N[C@@H](CCCNC(N)=O)C(=O)Nc3ccc(COC(=O)NCCCCCC(=O)N(C)[C@@H](C)C(=O)O[C@H]4CC(=O)N(C)c5cc(cc(OC)c5Cl)C/C(C)=C/C=C/[C@@H](OC)[C@@]5(O)C[C@H](OC(=O)N5)[C@@H](C)[C@@H]5O[C@@]45C)cc3)C(C)C)S(=O)(=O)NC(=O)OCC3C4CCC#CCCC43)C(C)C)cc1)[C@]1(C)O[C@H]1[C@H](C)[C@@H]1C[C@@](O)(NC(=O)O1)[C@H](OC)/C=C/C=C(\C)C2` (some centres unmarked) [Compound 37], the “retention time” value runs as follows: under setting [1], 10.5 min; under setting [2], 11.2 min.
The corresponding values for `COc1cc2cc(c1Cl)N(C)C(=O)C[C@H](OC(=O)[C@H](C)N(C)C(=O)CCCCCNC(=O)OCc1ccc(NC(=O)[C@H](CCCNC(N)=O)NC(=O)[C@@H](NC(=O)OCCN(CCOC(=O)N[C@H](C(=O)N[C@@H](CCCNC(N)=O)C(=O)Nc3ccc(COC(=O)NCCCCCC(=O)N(C)[C@@H](C)C(=O)O[C@H]4CC(=O)N(C)c5cc(cc(OC)c5Cl)C/C(C)=C/C=C/[C@@H](OC)[C@@]5(O)C[C@H](OC(=O)N5)[C@@H](C)[C@@H]5O[C@@]45C)cc3)C(C)C)S(=O)(=O)NC(=O)OCCOCCNS(=O)(=O)NC(=O)OCC3C4CCC#CCCC43)C(C)C)cc1)[C@]1(C)O[C@H]1[C@H](C)[C@@H]1C[C@@](O)(NC(=O)O1)[C@H](OC)/C=C/C=C(\C)C2` (some centres unmarked) [Compound 38] are 9.5 min and 11.1 min.
